Laboratory results: publication doi:10.1101/2024.08.19.608619, “Discovery of potent SARS-CoV-2 nsp3 macrodomain inhibitors uncovers lack of translation to cellular antiviral response” (bioRxiv, 2024)
“And” between values parts separate entries of the source, which are not always exact repeats. Identical values can stand only once. Like-named read-outs stand apart in the source and are kept apart here.

Columns and labels:
PDE4D2 (h) = target: T1, PDE4D2 (h) (Homo sapiens, UniProt Q08499); assay: In vitro CEREP profiling, PDE4D2 (h); format: biochemical; conditions: test compound concentration 10 uM, Enzyme and Cell-based assays; for inhibition at 10 µM: read-out: perc_inhibition: % inhibition of control enzyme activity, PDE4D2 (h)
T1 construct: purchased Eurofins Cerep (SafetyScreen44), recognised from the panel format
T1 sequence (Q08499 303-809): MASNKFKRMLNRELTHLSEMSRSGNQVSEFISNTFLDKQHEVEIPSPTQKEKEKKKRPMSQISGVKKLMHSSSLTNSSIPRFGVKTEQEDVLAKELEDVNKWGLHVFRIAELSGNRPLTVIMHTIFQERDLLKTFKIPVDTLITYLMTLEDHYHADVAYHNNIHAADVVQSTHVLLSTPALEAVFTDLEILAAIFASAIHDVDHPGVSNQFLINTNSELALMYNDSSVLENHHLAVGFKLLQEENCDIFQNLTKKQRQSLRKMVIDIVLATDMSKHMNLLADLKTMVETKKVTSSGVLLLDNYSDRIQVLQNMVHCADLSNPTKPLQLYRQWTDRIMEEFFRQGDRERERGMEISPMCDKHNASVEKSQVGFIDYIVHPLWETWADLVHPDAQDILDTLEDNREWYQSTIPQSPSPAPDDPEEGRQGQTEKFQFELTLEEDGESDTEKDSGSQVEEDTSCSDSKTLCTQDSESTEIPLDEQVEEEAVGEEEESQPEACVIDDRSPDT
Text: (§1) Supplement media-1.zip/Safety_Panel_Profile.csv, table | column: perc_inhibition

5-HT1B (h) = target: T2, 5-HT1B (h) (Homo sapiens, UniProt P28222); assay: In vitro CEREP profiling, 5-HT1B (h) (antagonist radioligand); format: binding; conditions: test compound concentration 10 uM; for inhibition at 10 µM: read-out: perc_inhibition (% inhibition of the binding of a ligand specific for each target)
T2 construct: purchased Eurofins Cerep (SafetyScreen44), recognised from the panel format
T2 sequence (P28222 whole entry): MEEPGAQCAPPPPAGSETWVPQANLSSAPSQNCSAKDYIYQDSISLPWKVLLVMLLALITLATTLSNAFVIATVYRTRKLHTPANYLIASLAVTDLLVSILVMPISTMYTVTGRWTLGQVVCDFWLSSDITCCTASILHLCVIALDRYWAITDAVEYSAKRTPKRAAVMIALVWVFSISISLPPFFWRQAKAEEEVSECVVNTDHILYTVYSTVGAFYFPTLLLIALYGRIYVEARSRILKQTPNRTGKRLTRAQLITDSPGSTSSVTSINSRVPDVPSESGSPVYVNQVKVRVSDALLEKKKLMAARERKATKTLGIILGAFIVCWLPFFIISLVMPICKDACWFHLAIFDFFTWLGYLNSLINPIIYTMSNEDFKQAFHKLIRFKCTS
Text: as §1

5-HT2B (h) = target: T3, 5-HT2B (h) (Homo sapiens, UniProt P41595); assay: In vitro CEREP profiling, 5-HT2B (h) (agonist radioligand); format: binding; conditions: test compound concentration 10 uM; for inhibition at 10 µM: read-out: perc_inhibition, % inhibition of the binding of a ligand specific for each target
T3 construct: purchased Eurofins Cerep (SafetyScreen44), recognised from the panel format
T3 sequence (P41595 whole entry): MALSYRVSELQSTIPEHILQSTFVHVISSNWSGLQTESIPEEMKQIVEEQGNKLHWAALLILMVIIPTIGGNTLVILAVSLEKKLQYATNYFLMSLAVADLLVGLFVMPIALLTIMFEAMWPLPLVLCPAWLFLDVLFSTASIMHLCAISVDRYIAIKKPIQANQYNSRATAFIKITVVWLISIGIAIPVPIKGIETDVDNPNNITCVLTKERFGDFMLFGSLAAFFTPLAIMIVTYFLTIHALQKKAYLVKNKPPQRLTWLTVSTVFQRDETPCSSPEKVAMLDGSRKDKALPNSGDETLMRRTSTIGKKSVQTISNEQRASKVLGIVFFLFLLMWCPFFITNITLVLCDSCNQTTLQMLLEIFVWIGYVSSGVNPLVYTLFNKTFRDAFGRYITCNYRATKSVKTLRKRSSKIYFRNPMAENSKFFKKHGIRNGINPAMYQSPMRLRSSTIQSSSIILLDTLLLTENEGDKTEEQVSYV
Text: as §1

MERS-CoV = assay: microbe, parasite or virus in culture; format: cell-based; conditions: for perc_max_measured: maximum measured response of dose series; for perc_min_measured: minimum measured response of dose series
COX1(h) = target: T4, COX1(h) (Homo sapiens, UniProt P23219); assay: In vitro CEREP profiling, COX1(h); format: biochemical; conditions: test compound concentration 10 uM, Enzyme and Cell-based assays; for inhibition at 10 µM: read-out: perc_inhibition: % inhibition of control enzyme activity, COX1(h)
T4 construct: purchased Eurofins Cerep (SafetyScreen44), recognised from the panel format
T4 sequence (P23219 24-599): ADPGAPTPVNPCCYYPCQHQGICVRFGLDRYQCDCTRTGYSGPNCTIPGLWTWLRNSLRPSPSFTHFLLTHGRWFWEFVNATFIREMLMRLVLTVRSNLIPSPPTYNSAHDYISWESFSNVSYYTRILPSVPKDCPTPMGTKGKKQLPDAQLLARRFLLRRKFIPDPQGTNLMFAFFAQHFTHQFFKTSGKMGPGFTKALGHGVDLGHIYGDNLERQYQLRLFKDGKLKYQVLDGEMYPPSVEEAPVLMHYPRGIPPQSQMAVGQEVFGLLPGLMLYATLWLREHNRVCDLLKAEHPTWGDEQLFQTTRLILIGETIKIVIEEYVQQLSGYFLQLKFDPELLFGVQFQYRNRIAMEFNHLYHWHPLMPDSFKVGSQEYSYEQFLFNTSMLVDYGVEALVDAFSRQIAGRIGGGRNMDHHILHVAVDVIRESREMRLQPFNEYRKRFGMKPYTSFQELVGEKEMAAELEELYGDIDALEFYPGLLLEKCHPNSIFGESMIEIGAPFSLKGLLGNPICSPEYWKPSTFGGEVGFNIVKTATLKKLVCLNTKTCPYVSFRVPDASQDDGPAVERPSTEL
Text: as §1

PKCθ(h) = target: T5, PKCθ(h) (Homo sapiens, UniProt Q04759); assay: biochemical; set-up: In vitro kinase panel profiling, per cent remaining kinase activity at 10 uM; conditions: atp_concentration=15, read-out: % of control remaining
T5 construct: gene PRKCQ
T5 sequence (Q04759 whole entry): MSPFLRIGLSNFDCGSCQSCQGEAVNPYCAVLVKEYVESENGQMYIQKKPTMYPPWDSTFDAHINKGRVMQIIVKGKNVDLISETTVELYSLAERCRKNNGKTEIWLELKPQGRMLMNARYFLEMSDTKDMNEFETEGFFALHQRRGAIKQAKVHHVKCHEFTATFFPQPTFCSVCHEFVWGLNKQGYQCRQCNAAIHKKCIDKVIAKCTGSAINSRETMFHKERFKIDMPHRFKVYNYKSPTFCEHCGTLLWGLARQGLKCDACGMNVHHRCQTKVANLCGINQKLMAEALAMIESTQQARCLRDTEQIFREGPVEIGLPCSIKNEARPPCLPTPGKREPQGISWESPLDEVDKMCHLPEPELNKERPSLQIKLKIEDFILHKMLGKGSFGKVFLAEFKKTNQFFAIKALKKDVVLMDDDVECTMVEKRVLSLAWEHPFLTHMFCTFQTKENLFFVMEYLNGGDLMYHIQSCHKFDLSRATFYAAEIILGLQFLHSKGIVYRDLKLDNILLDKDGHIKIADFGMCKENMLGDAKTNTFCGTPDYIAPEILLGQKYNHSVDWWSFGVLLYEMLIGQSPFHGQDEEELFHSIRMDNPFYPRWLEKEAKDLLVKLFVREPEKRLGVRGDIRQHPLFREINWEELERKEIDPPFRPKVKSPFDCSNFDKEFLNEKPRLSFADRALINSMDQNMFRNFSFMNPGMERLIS
Text: (§2) We derisk potential for off-target activity by profiling the compound in a CEREP panel, a standard secondary pharmacology assessment, as well as a kinase panel to derisk a potential hinge-binding motif in our leads, and a PARP panel to derisk activity against human […]. Reassuringly, the compounds are selective, with the only off-targets being moderate human CHRM2 and KOR receptors activity associated with ASAP-0011198.

PKCα(h) = target: T6, PKCα(h) (Homo sapiens, UniProt P17252); assay: biochemical; set-up: In vitro kinase panel profiling, per cent remaining kinase activity at 10 uM; conditions: atp_concentration=45, read-out: % of control remaining
T6 construct: gene PRKCA
Text: as §2

ASK1(h) = target: T7, ASK1(h) (Homo sapiens, UniProt Q99683); assay: biochemical; set-up: In vitro kinase panel profiling, per cent remaining kinase activity at 10 uM; conditions: atp_concentration=200, read-out: % of control remaining
T7 construct: gene MAP3K5
T7 sequence (Q99683 1-1374): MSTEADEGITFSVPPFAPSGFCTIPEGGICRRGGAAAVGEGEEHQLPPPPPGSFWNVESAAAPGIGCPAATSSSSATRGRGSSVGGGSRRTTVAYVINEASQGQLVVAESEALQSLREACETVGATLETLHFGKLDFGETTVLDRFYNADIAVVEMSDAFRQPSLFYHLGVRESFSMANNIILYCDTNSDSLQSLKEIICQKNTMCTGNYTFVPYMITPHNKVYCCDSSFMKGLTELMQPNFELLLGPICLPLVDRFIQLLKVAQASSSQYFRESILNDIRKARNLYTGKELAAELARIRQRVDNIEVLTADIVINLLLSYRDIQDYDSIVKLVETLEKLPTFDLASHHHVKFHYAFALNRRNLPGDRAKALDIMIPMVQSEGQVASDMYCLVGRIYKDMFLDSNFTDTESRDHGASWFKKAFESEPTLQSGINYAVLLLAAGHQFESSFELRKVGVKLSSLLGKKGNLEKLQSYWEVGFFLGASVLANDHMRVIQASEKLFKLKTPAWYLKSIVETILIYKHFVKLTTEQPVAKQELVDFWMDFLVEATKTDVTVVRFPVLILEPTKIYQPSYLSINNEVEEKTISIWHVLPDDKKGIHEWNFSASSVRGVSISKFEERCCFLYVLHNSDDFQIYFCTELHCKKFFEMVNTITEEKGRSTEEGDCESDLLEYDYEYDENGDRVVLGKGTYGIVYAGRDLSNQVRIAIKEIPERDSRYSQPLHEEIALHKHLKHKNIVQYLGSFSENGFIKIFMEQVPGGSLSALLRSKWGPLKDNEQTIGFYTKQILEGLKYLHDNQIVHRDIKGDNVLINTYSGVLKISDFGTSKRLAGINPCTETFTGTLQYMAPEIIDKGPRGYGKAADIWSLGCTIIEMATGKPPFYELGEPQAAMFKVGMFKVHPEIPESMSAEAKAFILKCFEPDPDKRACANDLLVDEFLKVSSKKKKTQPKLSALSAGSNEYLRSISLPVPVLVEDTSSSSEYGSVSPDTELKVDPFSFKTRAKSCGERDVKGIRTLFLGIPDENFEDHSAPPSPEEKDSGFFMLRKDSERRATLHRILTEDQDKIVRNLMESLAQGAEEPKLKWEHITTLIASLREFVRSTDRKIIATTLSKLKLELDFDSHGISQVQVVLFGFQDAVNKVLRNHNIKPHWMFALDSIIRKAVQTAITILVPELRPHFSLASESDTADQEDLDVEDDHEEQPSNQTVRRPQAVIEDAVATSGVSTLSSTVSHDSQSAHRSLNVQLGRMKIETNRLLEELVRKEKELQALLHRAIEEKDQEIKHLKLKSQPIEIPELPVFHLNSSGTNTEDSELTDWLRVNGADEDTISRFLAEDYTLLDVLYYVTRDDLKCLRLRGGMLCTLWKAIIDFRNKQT
Text: as §2

CDK6/cyclinD3(h) = CDK6/cyclinD3(h) (Homo sapiens, UniProt Q00534); assay: biochemical; set-up: In vitro kinase panel profiling, per cent remaining kinase activity at 10 uM; conditions: atp_concentration=200, read-out: % of control remaining
CDK6/cyclinD3(h), sequence (Q00534 whole entry): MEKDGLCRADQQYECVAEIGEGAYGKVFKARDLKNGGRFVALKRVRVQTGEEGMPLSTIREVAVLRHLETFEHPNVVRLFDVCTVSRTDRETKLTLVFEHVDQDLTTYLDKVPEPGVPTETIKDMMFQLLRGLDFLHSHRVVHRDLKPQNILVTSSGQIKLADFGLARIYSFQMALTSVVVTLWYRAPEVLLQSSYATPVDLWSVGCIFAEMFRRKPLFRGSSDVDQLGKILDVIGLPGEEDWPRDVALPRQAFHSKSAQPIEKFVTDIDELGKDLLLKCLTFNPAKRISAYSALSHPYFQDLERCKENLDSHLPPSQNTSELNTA
CDK6/cyclinD3(h), sequence (P30281 whole entry partner): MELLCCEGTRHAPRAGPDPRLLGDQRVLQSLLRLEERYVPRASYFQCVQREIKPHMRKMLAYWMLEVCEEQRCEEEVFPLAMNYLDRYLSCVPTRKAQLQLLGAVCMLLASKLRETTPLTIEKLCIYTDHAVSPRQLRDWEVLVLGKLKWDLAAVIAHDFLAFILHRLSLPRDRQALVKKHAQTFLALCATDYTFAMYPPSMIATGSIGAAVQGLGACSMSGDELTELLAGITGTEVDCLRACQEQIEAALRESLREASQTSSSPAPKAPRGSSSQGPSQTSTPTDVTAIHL
Text: as §2

MAPKAP-K2(h) = target: T8, MAPKAP-K2(h) (Homo sapiens, UniProt P49137); assay: biochemical; set-up: In vitro kinase panel profiling, per cent remaining kinase activity at 10 uM; conditions: atp_concentration=90, read-out: % of control remaining
T8 construct: gene MAPKAPK2
T8 sequence (P49137 whole entry): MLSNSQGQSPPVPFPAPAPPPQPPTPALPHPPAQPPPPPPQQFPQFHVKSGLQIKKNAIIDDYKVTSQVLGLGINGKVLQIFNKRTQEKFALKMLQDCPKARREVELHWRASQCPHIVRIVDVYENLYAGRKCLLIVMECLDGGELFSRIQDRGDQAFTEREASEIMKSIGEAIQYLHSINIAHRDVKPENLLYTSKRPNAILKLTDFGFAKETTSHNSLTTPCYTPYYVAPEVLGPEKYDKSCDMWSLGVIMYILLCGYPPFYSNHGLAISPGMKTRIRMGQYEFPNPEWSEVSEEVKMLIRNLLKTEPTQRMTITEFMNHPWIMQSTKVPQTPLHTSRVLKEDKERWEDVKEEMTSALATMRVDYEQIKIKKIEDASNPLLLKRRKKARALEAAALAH
Text: as §2

[1] = Middle East respiratory syndrome-related coronavirus, VeroE6/TMPRSS2
[2] = Vero E6/TMPRSS2 MERS-CoV antiviral effect with P-gp inhibitor
[3] = Vero E6/TMPRSS2 MERS-CoV antiviral effect with P-gp inhibitor, read-out: ec50
[4] = Vero E6/TMPRSS2 MERS-CoV antiviral effect with P-gp inhibitor, read-out: ec90

CC(C)C(Nc1ncnc2[nH]c(C(=O)NC3CCN(C)C3)cc12)c1ccc2c(c1)S(=O)(=O)CCC2 (stereo not shown) [ASAP-0011198]
inhibition at 10 µM (PDE4D2 (h)): 37%
inhibition at 10 µM (5-HT1B (h)): 17%
inhibition at 10 µM (5-HT2B (h)): 6%
EC50 (MERS-CoV; [1]): > 5 µM
EC90 (MERS-CoV; [1]): > 5 µM
perc_max_measured (MERS-CoV; [2]): 124.089% and 106.936%
perc_min_measured (MERS-CoV; [2]): 88.282% and 84.091%
inhibition at 10 µM (COX1(h)): 44%
remaining activity at 10 µM (PKCθ(h); batch_name=ASAP-0011198-002): 102%
remaining activity at 10 µM (PKCα(h); batch_name=ASAP-0011198-002): 101%
remaining activity at 10 µM (ASK1(h); batch_name=ASAP-0011198-002): 105%
remaining activity at 10 µM (CDK6/cyclinD3(h); batch_name=ASAP-0011198-002): 99%
remaining activity at 10 µM (MAPKAP-K2(h); batch_name=ASAP-0011198-002): 108%

Cc1nn(C)cc1-c1cc2c(NC(c3ccc4c(c3)S(=O)(=O)CCC4)C(C)C)ncnc2[nH]1 (stereo not shown) [ASAP-0011446]
inhibition at 10 µM (PDE4D2 (h)): 43%
inhibition at 10 µM (5-HT1B (h)): 15%
inhibition at 10 µM (5-HT2B (h)): 43%
EC50 (MERS-CoV; [1]): > 5 µM
EC90 (MERS-CoV; [1]): > 5 µM
perc_max_measured (MERS-CoV; [2]): 103.374% and 130.763%
perc_min_measured (MERS-CoV; [2]): 64.505% and 89.964%
inhibition at 10 µM (COX1(h)): -23%
remaining activity at 10 µM (PKCθ(h); batch_name=ASAP-0011446-002): 106%
remaining activity at 10 µM (PKCα(h); batch_name=ASAP-0011446-002): 93%
remaining activity at 10 µM (ASK1(h); batch_name=ASAP-0011446-002): 103%
remaining activity at 10 µM (CDK6/cyclinD3(h); batch_name=ASAP-0011446-002): 106%
remaining activity at 10 µM (MAPKAP-K2(h); batch_name=ASAP-0011446-002): 110%

C[C@H](C(=O)O)[C@@H](NC(=O)c1ncnc2[nH]ccc12)c1ccc(Br)cc1 [ASAP-0014722]
perc_inhibition: % inhibition of control enzyme activity, PDE4D2 (h) (PDE4D2 (h)): 30%
perc_inhibition (% inhibition of the binding of a ligand specific for each target) (5-HT1B (h)): 1%
perc_inhibition (% inhibition of the binding of a ligand specific for each target) (5-HT2B (h)): -4%
perc_max_measured (MERS-CoV; [2]): 106.305% and 132.117%
perc_min_measured (MERS-CoV; [2]): 63.318% and 92.538%
EC50 (MERS-CoV; [3]): > 5 µM
EC90 (MERS-CoV; [4]): > 5 µM
perc_inhibition: % inhibition of control enzyme activity, COX1(h) (COX1(h)): 14%
remaining activity at 10 µM (PKCθ(h); batch_name=ASAP-0014722-002): 100%
remaining activity at 10 µM (PKCα(h); batch_name=ASAP-0014722-002): 108%
remaining activity at 10 µM (ASK1(h); batch_name=ASAP-0014722-002): 102%
remaining activity at 10 µM (CDK6/cyclinD3(h); batch_name=ASAP-0014722-002): 97%
remaining activity at 10 µM (MAPKAP-K2(h); batch_name=ASAP-0014722-002): 98%

COc1ccc([C@H](Cc2nnn[nH]2)NC(=O)c2ncnc3[nH]ccc23)cc1 [ASAP-0015381]
perc_inhibition: % inhibition of control enzyme activity, PDE4D2 (h) (PDE4D2 (h)): 41%
perc_inhibition (% inhibition of the binding of a ligand specific for each target) (5-HT1B (h)): -14%
perc_inhibition (% inhibition of the binding of a ligand specific for each target) (5-HT2B (h)): -33%
perc_max_measured (MERS-CoV; [2]): 110.958% and 111.344%
perc_min_measured (MERS-CoV; [2]): 85.891% and 86.764%
EC50 (MERS-CoV; [3]): > 5 µM
EC90 (MERS-CoV; [4]): > 5 µM
perc_inhibition: % inhibition of control enzyme activity, COX1(h) (COX1(h)): 17%
remaining activity at 10 µM (PKCθ(h); batch_name=ASAP-0015381-001): 91%
remaining activity at 10 µM (PKCα(h); batch_name=ASAP-0015381-001): 93%
remaining activity at 10 µM (ASK1(h); batch_name=ASAP-0015381-001): 103%
remaining activity at 10 µM (CDK6/cyclinD3(h); batch_name=ASAP-0015381-001): 102%
remaining activity at 10 µM (MAPKAP-K2(h); batch_name=ASAP-0015381-001): 102%
